From paper PMC8268581, “Identification of 3,4-Dihydro-2H,6H-pyrimido[1,2-c][1,3]benzothiazin-6-imine Derivatives as Novel Selective Inhibitors of Plasmodium falciparum Dihydroorotate Dehydrogenase” (International Journal of Molecular Sciences, 2021)

Legend:
[1] = target: mammalian mitochondrial complexes I–III (Bos taurus, UniProt P00157+P03887+P17694+P42026); test: NADH-cytochrome c reductase (complexes I–III) activity assay; assay type: biochemical; conditions: bovine heart mitochondria, range tested 0.0007 to 22.7 µM; read-out: IC50 Mammalian Mitochondrial CI–III
Method: Bovine heart mitochondria were prepared as previously described. The NADH-cytochrome c reductase (complexes I–III) and succinate-cytochrome c reductase (complexes II–III) activities were assayed in 384-well plates following an established protocol with small modifications. Complex I–III activity was assayed in a reaction mix containing 50 mM phosphate buffer pH 7.4, 2 mM KCN, 200 µM cytochrome c (cytochrome c from horse heart, Nacalai tesque), and 15 µg/mL mitochondria. Plates containing 1 µL serial dilutions of PfDHODH inhibitors were prepared and mixed with 38 µL of the reaction mix, as described above. The reaction was started by the addition of 5 µL of 2.6 mM NADH, and the assay was performed as described for PfDHODH, but at 550 nm and with 15 min of incubation. Complex II–III activity was assayed similarly to complex I–III activity but with 100 µM cytochrome c and 25 µg/mL mitochondria, and the reaction was started by 10 mM succinate. For both assays, DMSO and 5 µM ascochlorin were used as negative and positive controls, respectively. Assays were performed in triplicate.

[2] = system: P. falciparum 3D7 strain expressing the cytosolic yeast DHODH (3D7-yDHODH); test: Confirmation assay against transgenic parasite 3D7-yDHODH; assay type: cell-based, Plasmodium falciparum; conditions: for activity at 10 µM: 72 h, relative parasite growth at 10 µM compound, read-out: Growth at 10 µM (%) Pf3D7-yDHODH; for susceptibility of Pf3D7-yDHODH parasite (in words): relative parasite growth at 10 µM, compared with wild-type 3D7
Method: Synchronized ring-stage parasites at 0.3% parasitemia and 2% hematocrit were cultured in a 384-well plate at 25 µL with test compounds at a final concentration in the range of 0.0003 to 10 µM with a fixed DMSO concentration of 0.4% (v/v). Parasite growth was monitored by the diaphorase-coupled P. falciparum lactate dehydrogenase (PfLDH) assay, as previously described. After 72 h, 70 µL of the assay solution (150 mM lithium L-lactate (Wako), 0.05 mg/mL 3-acetylpyridine adenine dinucleotide (Oriental Yeast Co., Ltd., Tokyo, Japan), 0.2 mg/mL nitro blue tetrazolium (Wako), 1 unit/mL diaphorase, and 100 mM Tris-HCl pH 8.0) were mixed with the parasite culture and incubated at room temperature for 40 min, and the generated nitro blue formazan was measured at 650 nm using a SpectraMax®® Paradigm®® Multi-Mode Microplate Reader. […] The EC50 was calculated using GraphPad Prism 8.0 software from the mean of quadruplets values.
The P. falciparum 3D7 strain expressing the cytosolic yeast DHODH (3D7-yDHODH) was prepared as follows. pHHyDHODH-GFP plasmid (Kerafast, Boston, MA, USA) was transfected to the P. falciparum 3D7 strain following the established transfection method. Briefly, 50 µg of plasmid dissolved in cytomix solution (120 mM KCl, 0.15 mM CaCl2, 10 mM K2HPO4/KH2PO4 pH 7.6, 25 mM HEPES-KOH pH 7.6, 2 mM ethylene glycol-bis(β-aminoethyl ether)-N,N,N′,N′-tetraacetic acid (EGTA, Dojindo), and 5 mM magnesium chloride (Wako)) was transfected into the red blood cells by the Gene Pulser Xcell (Bio-Rad). Percoll–sorbitol synchronized parasites were mixed with red blood cells containing plasmid and maintained under 5 nM WR99210 for 2 weeks. The growth of resistant parasites against DSM265 and atovaquone, as PfDHODH and complex III inhibitors respectively, was confirmed by PfLDH/diaphorase assay. A total of 10 µM PfDHODH inhibitors were tested against wild-type 3D7 and 3D7-yDHODH following the method described above in triplicate. The significance of difference between the inhibition of the two parasite strains was evaluated by Student’s t-test (Figure S4).

[3] = Cytotoxicity assay, HDF (Cell Counting Kit-8); assay type: cell-based; conditions: human dermal fibroblast (HDF) cells, normal human dermal fibroblasts
Method: (§1) Human dermal fibroblast cells (HDF, Zenbio, Inc., Durham, NC, USA) were cultured in Dulbecco’s Modified Eagle Medium/Nutrient Mixture F-12 medium (DMEM/F12, Gibco), human pancreatic carcinoma cells (PANC-1, DS Pharma Biomedical, Co., Ltd.) were cultured in DMEM (Gibco), and human colorectal adenocarcinoma cells (DLD-1, Taiho Pharmaceutical Company) were cultured in RPMI-1640 medium (FUJIFILM Wako Pure Chemicals). The culture mediums were supplemented with 10% (v/v) heat-inactivated fetal bovine serum (Gibco) and the cells were maintained at 37 °C under 5% CO2.
(§2) HDF, PANC-1, and DLD-1 were seeded at 2.5 × 10^4 cells/well on a 96-well plate and incubated at 37 °C under 5% CO2 overnight. The cells were then washed with PBS and the medium was replaced with 99 µL of fresh media. Then, 1 µL of the compounds or DMSO was added to the respective wells. As controls, wells containing 1% (v/v) DMSO in column 1 and wells containing only the culture medium in column 12 were used as the negative and positive controls, respectively. After 48 h of incubation, the cells were washed with PBS, and 99 µL of fresh media was replaced, followed by the addition of 10 µL of Cell Counting Kit-8 (Dojindo) to each well. After 3 h of incubation, the absorbance was measured at 450 nm using a SpectraMax®® Paradigm®® Multi-Mode microplate Reader. The calculation of cell viability in the test well was based on the absorbance of control wells according to the manufacturer’s protocol. The mean of quadruplet values was used to calculate the CC50 using GraphPad Prism 8.0 software.

[4] = Cytotoxicity assay, PANC-1 (Cell Counting Kit-8); assay type: cell-based; conditions: PANC-1 human pancreatic carcinoma cells
Method: as §1, §2

Compound | IC50 [1] | activity at 10 µM [2] | EC50 at 48 h [3] | EC50 at 48 h [4] | susceptibility of Pf3D7-yDHODH parasite (in words) [2]
N=C1Sc2cc(-c3ccc4ccccc4c3)ccc2C2=NCCCN12 [Compound 1] | > 22.7 µM | -0.62 ± 0.07% | > 10 µM | > 10 µM | 
N=C1Sc2cc(-c3ccc4c(c3)OCO4)ccc2C2=NCCCN12 [Compound 3] | > 22.7 µM | -0.23 ± 0.01% | > 10 µM | > 10 µM | 
N=C1Sc2cc(-c3ccc4c(c3)OCCO4)ccc2C2=NCCCN12 [Compound 4] | > 22.7 µM | 24 ± 5.76% | > 10 µM | > 10 µM | 
N=C1Sc2cc(-c3ccc4cnccc4c3)ccc2C2=NCCCN12 [Compound 5] | > 22.7 µM | 26 ± 8.27% | > 10 µM | > 10 µM | 
N=C1Sc2cc(-c3ccc4c(C(=O)OC(F)(F)F)c[nH]c4c3)ccc2C2=NCCCN12 [Compound 6] | > 22.7 µM | 104.4 ± 0.11% | > 10 µM | > 10 µM | reduced susceptibility
N=C1Sc2cc(-c3cc4ccccc4o3)ccc2C2=NCCCN12 [Compound 7] | > 22.7 µM | 36.2 ± 1.01% | > 10 µM | > 10 µM | 
N=C1Sc2cc(/C=C/c3ccccc3)ccc2C2=NCCCN12 [Compound 8] | > 22.7 µM | 0.12 ± 0.21% | > 10 µM | > 10 µM | 
CC(C)(C)N=C1Sc2cc(-c3cc4ccccc4s3)ccc2C2=NCCCN12 [Compound 10] | > 22.7 µM | -0.48 ± 0.07% | > 10 µM | > 10 µM | 
N=C1Sc2cc(-c3ccccc3)ccc2C2=NCCCN12 [Compound 12] | > 22.7 µM | -0.22 ± 0.12% | > 10 µM | > 10 µM | 
COC(=O)c1ccc(-c2ccc3c(c2)SC(=N)N2CCCN=C32)cc1 [Compound 13] | > 22.7 µM | 70.5 ± 0.73% | > 10 µM | > 10 µM | reduced susceptibility
N#Cc1ccc(-c2ccc3c(c2)SC(=N)N2CCCN=C32)cc1 [Compound 14] | > 22.7 µM | 105 ± 0.47% | > 10 µM | > 10 µM | reduced susceptibility
N=C1Sc2cc(-c3ccc(C(F)(F)F)cc3)ccc2C2=NCCCN12 [Compound 15] | > 22.7 µM | -0.38 ± 0.17% | > 10 µM | > 10 µM | 
CSc1ccc(-c2ccc3c(c2)SC(=N)N2CCCN=C32)cc1 [Compound 17] | > 22.7 µM | -0.5 ± 0.01% | > 10 µM | > 10 µM | 
N=C1Sc2cc(-c3ccc(OC(F)(F)F)cc3)ccc2C2=NCCCN12 [Compound 18] | > 22.7 µM | 2.54 ± 0.42% | > 10 µM | > 10 µM | 
N=C1Sc2cc(-c3ccc(C(=O)c4ccccc4)cc3)ccc2C2=NCCCN12 [Compound 19] | > 22.7 µM | 68.6 ± 0.43% | > 10 µM | > 10 µM | reduced susceptibility
C#CCOCc1ccc(C(=O)c2ccc(-c3ccc4c(c3)SC(=N)N3CCCN=C43)cc2)cc1 [Compound 20] | > 22.7 µM | 0.45 ± 0.74% | > 10 µM | > 10 µM | 
N=C1Sc2cc(-c3cccc([N+](=O)[O-])c3)ccc2C2=NCCCN12 [Compound 21] | > 22.7 µM | 103 ± 0.67% | > 10 µM | > 10 µM | reduced susceptibility
CC(C)Oc1cccc(-c2ccc3c(c2)SC(=N)N2CCCN=C32)c1 [Compound 22] | > 22.7 µM | -0.06 ± 0.24% | > 10 µM | > 10 µM | 
CCc1cccc(-c2ccc3c(c2)SC(=N)N2CCCN=C32)c1 [Compound 25] | > 22.7 µM | 0.01 ± 0.15% | > 10 µM | > 10 µM | 
N=C1Sc2cc(-c3ccccc3-c3ccccc3)ccc2C2=NCCCN12 [Compound 27] | > 22.7 µM | 0.25 ± 0.04% | > 10 µM | > 10 µM | 
c1ccc(-c2ccc3c(c2)SN2CCCN=C32)cc1 [Compound 30] | > 22.7 µM | 63.6 ± 5.87% | > 10 µM | > 10 µM | reduced susceptibility
c1ccc2c(-c3ccc4c(c3)SN3CCCN=C43)cccc2c1 [Compound 31] | > 22.7 µM | 0% | > 10 µM | > 10 µM | 
c1cc2c(cc1-c1ccc3c(c1)SN1CCCN=C31)OCO2 [Compound 32] | > 22.7 µM | 0.11 ± 0.03% | > 10 µM | > 10 µM | 
c1ccc(-c2ccc3c(c2)C2=NCCCN2S3)cc1 [Compound 36] | > 22.7 µM | 32.5 ± 10.1% | 8.38 µM | > 10 µM | 
COC(=O)c1ccc(-c2ccc3c(c2)SN2CCCN=C32)cc1 [Compound 37] | > 22.7 µM | -0.18 ± 0.05% | 8.43 µM | > 10 µM | 
O=[N+]([O-])c1ccc(-c2ccc3c(c2)SN2CCCN=C32)cc1 [Compound 39] | > 22.7 µM | 1.48 ± 0.14% | > 10 µM | > 10 µM | 
COC(=O)c1cccc(-c2ccc3c(c2)SN2CCCN=C32)c1 [Compound 40] | > 22.7 µM | -0.09 ± 0.08% | 9.16 µM | > 10 µM | 
COc1ccccc1-c1ccc2c(c1)SN1CCCN=C21 [Compound 42] | > 22.7 µM | 0.04 ± 0.15% | 9.77 µM | > 10 µM | 
O=[N+]([O-])c1ccccc1-c1ccc2c(c1)SN1CCCN=C21 [Compound 43] | > 22.7 µM | 31.1 ± 2.38% | 9.44 µM | > 10 µM | reduced susceptibility
